This assay deals with 695427-040-R-J1-PDC complex spheroids, viability percent T/C. The assay is described as follows: Anticancer human tumor 695427-040-R-J1-PDC patient-derived colon adenocarcinoma cell line growth inhibition [GQUAD]. The following applies: for viability, T/C: stronger effect = lower value. The text has this:
DNA G-quadruplex Stabilizer Agents in Combinations in Complex Spheroids
A high-throughput screen of multi-cell type tumor spheroids was designed to identify active combinations of DNA G-quadruplex stabilizer agents and targeted small molecules. Complex spheroids include a stromal component modeled by human endothelial cells (HUVEC) and fibroblasts modeled by human mesenchymal stem cells (MSCs). The concentration ranges selected for each drug and investigational agent were based upon clinically achievable concentrations if the clinical Cmax of the agent was known.
Compounds. The drugs and investigational agents: pidnarulex (CX-5461; NSC782164), APTO-253 (NSC789042), BRACO-19 (NSC847499), peposertib (NSC802822), ceralasertib (NSC780249), elimusertib (NSC800525), camonsertib (NSC841442), AZD-1390 (NSC803789), olaparib (NSC753686), talazoparib (NSC767125), ART-558 (NSC835418), sotorasib (NSC818433), MRTX-1133 (NSC836407), SN-38 (NSC673596), topotecan (NSC609699), etoposide (NSC141540), doxorubicin (NSC123127), gemcitabine (NSC613327), 5-fluorouracil (NSC19893), paclitaxel (NSC125973), vemurafenib (NSC761431), panobinostat (NSC761190), R-306465 (JNJ-16241199; NSC773264), adavosertib (NSC754352), TP-3654 (NSC805149), carboplatin (NSC241240), KSQ-4279 (NSC840948), and staurosporine (NSC755774) were obtained from the National Cancer Institute (NCI) Developmental Therapeutics Program Chemical Repository (34). The FDA-approved anticancer drug set is available from the NCI Developmental Therapeutics Program. […] The stock solutions were prepared in dimethyl sulfoxide (DMSO, Sigma-Aldrich, St. Louis, MO, cat. D2650) at 800-fold the tested concentration and stored at -70 degrees C prior to their use. All drugs and investigational agents were tested over a range starting from a high concentration at or near the clinical Cmax and decreasing in half-log increments. If the clinical Cmax for an agent had not been determined, the highest concentration tested was 10 microM.
2.3 Cell Culture. All cells were maintained in an incubator at 37 degrees C and 5% CO2 with 95% humidity. The PDC lines were cultured according to standard operating procedures established by the NCI PDMR. All PDCs were thawed and cultured in Matrigel-coated flasks prepared with a working solution of 1X Ham's F-12 nutrient mix, without supplementation (Invitrogen, cat. 11765054), 100 U/mL penicillin-streptomycin (Invitrogen, cat. 15140122), and 2.5% Matrigel (Corning Inc., cat. 354248) for the first three passages. The 857933-349-R-J2-PDC line was cultured in 6C/Colon 1B media, which includes advanced DMEM/F-12 (Thermo Fisher Scientific, cat. 12634028), 10 mM HEPES (Thermo Fisher Scientific, cat. 15630080), 1X GlutaMAX supplement (Thermo Fisher Scientific, cat. 35050061), 0.1 mg/mL primocin (InvivoGen, cat. ant-pm-2), 10% defined fetal bovine serum, heat inactivated (HyClone Laboratories Inc., cat. SH30070.03HI), 50% L-WRN conditioned media (ATCC, cat. CRL-3276), 1.25 mM N-Acetyl-L-cysteine (Sigma-Aldrich, cat. A9165), 10 mM nicotinamide (Sigma-Aldrich, cat. N0636), 1X B-27 supplement (Thermo Fisher Scientific, cat. 17504044), 1X N-2 supplement (Thermo Fisher Scientific, cat. 17502048), 10 microM Y-27632 dihydrochloride (Tocris Bioscience, cat. 1254), and 50 ng/mL human EGF recombinant protein (Thermo Fisher Scientific, cat. PHG0311). The 485176-168-R4-J1-PDC line was cultured in Panc media, which includes all 6C/Colon 1B media components plus 100 ng/mL human FGF-10 (Thermo Fisher Scientific, cat. 100-26), 500 nM SB-431542 (Selleckchem, cat. S1067), and gastrin (Tocris, cat. 3006).
[…]

[1] abbreviates: curve of first compound, second compound 0.0316 µM.
[2] abbreviates: curve of first compound, second compound 0.1 µM.
[3] abbreviates: curve of first compound, second compound 0.316 µM.
The mark [4] stands for this setting: curve of first compound, second compound 1 µM.
Setting [5] is: curve of first compound, second compound 3.16 µM.
Setting [6] is: curve of first compound, second compound 10 µM.
Setting [7] is: second compound 0.0316 µM, first compound 0.0316 µM.
[8] abbreviates: second compound 0.0316 µM, first compound 0.1 µM.
Setting [9] is: second compound 0.0316 µM, first compound 0.316 µM.
The mark [10] stands for this setting: second compound 0.0316 µM, first compound 1 µM.
[11] abbreviates: second compound 0.0316 µM, first compound 3.16 µM.
The mark [12] stands for this setting: second compound 0.0316 µM, first compound 10 µM.
Setting [13] is: second compound 0.1 µM, first compound 0.0316 µM.
The mark [14] stands for this setting: second compound 0.1 µM, first compound 0.1 µM.
[15] abbreviates: second compound 0.1 µM, first compound 0.316 µM.
Where [16] appears, read: second compound 0.1 µM, first compound 1 µM.
Where [17] appears, read: second compound 0.1 µM, first compound 3.16 µM.
Setting [18] is: second compound 0.1 µM, first compound 10 µM.
Where [19] appears, read: second compound 0.316 µM, first compound 0.0316 µM.
[20] abbreviates: second compound 0.316 µM, first compound 0.1 µM.
[21] abbreviates: second compound 0.316 µM, first compound 0.316 µM.
Where [22] appears, read: second compound 0.316 µM, first compound 1 µM.
Where [23] appears, read: second compound 0.316 µM, first compound 3.16 µM.
[24] abbreviates: second compound 0.316 µM, first compound 10 µM.
[25] abbreviates: second compound 1 µM, first compound 0.0316 µM.
Where [26] appears, read: second compound 1 µM, first compound 0.1 µM.
Setting [27] is: second compound 1 µM, first compound 0.316 µM.
Where [28] appears, read: second compound 1 µM, first compound 1 µM.
Setting [29] is: second compound 1 µM, first compound 3.16 µM.
The mark [30] stands for this setting: second compound 1 µM, first compound 10 µM.
Where [31] appears, read: second compound 3.16 µM, first compound 0.0316 µM.
[32] abbreviates: second compound 3.16 µM, first compound 0.1 µM.
[33] abbreviates: second compound 3.16 µM, first compound 0.316 µM.
The mark [34] stands for this setting: second compound 3.16 µM, first compound 1 µM.
[35] abbreviates: second compound 3.16 µM, first compound 3.16 µM.
Setting [36] is: second compound 3.16 µM, first compound 10 µM.
[37] abbreviates: second compound 10 µM, first compound 0.0316 µM.
Setting [38] is: second compound 10 µM, first compound 0.1 µM.
Where [39] appears, read: second compound 10 µM, first compound 0.316 µM.
Where [40] appears, read: second compound 10 µM, first compound 1 µM.
The mark [41] stands for this setting: second compound 10 µM, first compound 3.16 µM.
The mark [42] stands for this setting: second compound 10 µM, first compound 10 µM.

Each structure is given as a SMILES string. Where “and” joins values, the source holds several entries; their conditions need not be identical. Identical values can stand only once. Some results are limits rather than exact numbers.
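Further: spheroids exposed to compounds for seven days before readout.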

As for `C=CCn1c(=O)c2cnc(Nc3ccc(N4CCN(C)CC4)cc3)nc2n1-c1cccc(C(C)(C)O)n1` + CN(C)c1ccc(Nc2c3ccc(NC(=O)CCN4CCCC4)cc3nc3cc(NC(=O)CCN4CCCC4)ccc23)cc1, the IC50 by setting is: under setting [1], above 10000 nM; under setting [2], above 10000 nM; under setting [3], above 10000 nM; under setting [4], above 10000 nM; under setting [5], 8770 nM; under setting [6], 5200 nM. In addition, the viability, T/C under setting [7] was 104%; the viability, T/C under setting [8] is 104%; the viability, T/C under setting [9] is 87.5%; the viability, T/C under setting [10] is 83.2%; the viability, T/C under setting [11] was 66.6%; the viability, T/C under setting [12] is 61.7%. For the same molecule, the viability, T/C by setting is: under setting [13], 97.8%; under setting [14], 93.9%; under setting [15], 93.2%; under setting [16], 77.4%; under setting [17], 71.2%; under setting [18], 59.3%. Besides, the viability, T/C runs as follows: under setting [19], 101%; under setting [20], 89.1%; under setting [21], 85.9%; under setting [22], 85.2%; under setting [23], 72.8%; under setting [24], 53.3%. For the same molecule, the viability, T/C is 95.5% under setting [25]; 103% under setting [26]; 81.9% under setting [27]; 77.2% under setting [28]; 66.9% under setting [29]; 52.3% under setting [30]. In addition, the viability, T/C is 95.2% under setting [31]; 91.3% under setting [32]; 87.9% under setting [33]; 80.9% under setting [34]; 63.8% under setting [35]; 48.3% under setting [36]. In addition, the viability, T/C by setting is: under setting [37], 91.6%; under setting [38], 84.1%; under setting [39], 82.3%; under setting [40], 67.8%; under setting [41], 56.4%; under setting [42], 42%.

In the case of `O=C(NO)c1cnc(N2CCN(S(=O)(=O)c3ccc4ccccc4c3)CC2)nc1`, the viability, T/C (compound 0.0316 µM) is 99.2% and 107% and 96.1%; the viability, T/C (compound 0.1 µM) was 97.4% and 90.7% and 87.3%; the viability, T/C (compound 0.316 µM) is 98% and 73.8% and 71.3%.

Consider `Cc1[nH]c2ccccc2c1CCNCc1ccc(/C=C/C(=O)NO)cc1`, for which the viability, T/C reads like this: (compound 0.000999 µM) 98.8% and 112% and 98%; (compound 0.00316 µM) 103% and 100% and 96.8%; (compound 0.00999 µM) 98.5% and 103% and 99.5%; (compound 0.0316 µM) 98.7% and 110% and 101%; (compound 0.0999 µM) 96.6% and 93.8% and 94.2%; (compound 0.316 µM) 89.6% and 68% and 71.7%. Moreover, the IC50 (curve of compound) was above 316 nM.

As to `CC1COCCN1c1cc(C2(O)CC3CCC(C2)O3)c2cnn(-c3ccn[nH]3)c2n1` (stereo unspecified), the viability, T/C by setting is: (compound 0.0316 µM) 79.3% and 91.3% and 95%; (compound 0.1 µM) 66.4% and 78.3% and 88.3%; (compound 0.316 µM) 54.6% and 68.4% and 73.6%; (compound 1 µM) 41.1% and 52% and 56.7%; (compound 3.16 µM) 23.6% and 30.7% and 47.5%; (compound 10 µM) 20% and 23.6% and 36.8%. Moreover, the IC50 (curve of compound) was 431 nM and 993 nM and 2090 nM.

In the case of `CC(=O)O[C@H]1C(=O)[C@@]2(C)[C@H]([C@H](OC(=O)c3ccccc3)[C@]3(O)C[C@H](OC(=O)[C@H](O)[C@@H](NC(=O)c4ccccc4)c4ccccc4)C(C)=C1C3(C)C)[C@]1(OC(C)=O)CO[C@@H]1C[C@@H]2O` + Cc1[nH]c2ccc(F)cc2c1-c1nc2c3cccnc3c3ncccc3c2[nH]1, the IC50 was determined as 458 nM under setting [1]; 467 nM under setting [2]; 451 nM under setting [3]; 469 nM under setting [4]; 453 nM under setting [5]; 496 nM under setting [6]. Besides, the viability, T/C runs as follows: under setting [7], 99.4%; under setting [8], 92.9%; under setting [9], 71.6%; under setting [10], 4.67%; under setting [11], 0.18%; under setting [12], 0.29%. Moreover, the viability, T/C is 103% under setting [13]; 97.7% under setting [14]; 73.2% under setting [15]; 4.64% under setting [16]; 0.18% under setting [17]; 0.45% under setting [18]. Moreover, the viability, T/C by setting is: under setting [19], 102%; under setting [20], 91.2%; under setting [21], 69.8%; under setting [22], 6.24%; under setting [23], 0.21%; under setting [24], 0.26%. The viability, T/C under setting [25] was 89.3%; the viability, T/C under setting [26] was 87%; the viability, T/C under setting [27] is 72.2%; the viability, T/C under setting [28] was 7.42%; the viability, T/C under setting [29] was 0.2%; the viability, T/C under setting [30] was 0.87%. Further, the viability, T/C is, setting by setting: under setting [31], 78.3%; under setting [32], 82.9%; under setting [33], 69.4%; under setting [34], 7.14%; under setting [35], 0.33%; under setting [36], 0.32%. In addition, the viability, T/C runs as follows: under setting [37], 77.1%; under setting [38], 79.7%; under setting [39], 75.7%; under setting [40], 10%; under setting [41], 0.5%; under setting [42], 0.22%.

The values are drawn from PubChem BioAssay AID2060492 (Molecular Pharmacology Branch, DTP, NCI, 2025).
